Source: patent US20210059590A1, “IDENTIFICATION OF AND TREATMENT FOR PERSONS AT HIGH RISK FOR DEVELOPING MAJOR DEPRESSIVE DISORDER” (The Trustees of Columbia University in the City of New York, priority 2018, published 2021)
Like-named read-outs stand apart in the source and are kept apart here.

Assay: Plasma free fraction (fP) of the PET tracer
Format: in vitro ADME, human
Conditions: for fraction unbound: human, plasma
Description: Arterial plasma radioactivity, metabolites, and plasma free fraction (fP) were collected and assayed as previously described (Parsey et al., 2006; Parsey et al., 2000). Unmetabolized parent fraction levels were fit with a Hill function (Wu et al., 2007). The input function was corrected for unmetabolized tracer by multiplying the total plasma counts with the interpolated parent fraction. The metabolite-corrected arterial input function was fit as the combination of a straight line and the sum of three decreasing exponentials, describing the function before and after the peak, respectively.

For `COc1ccccc1N1CCN(CCN(C(=O)C2CCCCC2)c2ccccn2)CC1` [[^11C]WAY-100635, N-[2-[4-(2-methoxyphenyl)-1-piperazinyl]ethyl]-N-2-pyridinylcyclohexanecarboxamide], which “Percent Free Fraction” value (Depressed NRM MDD subjects, N=30, mean ± SD) is on record?
The value was 6.15 ± 1.72%.

And the “Percent Free Fraction” value (Healthy Volunteers (HV), N=51, mean ± SD)?
The value was 8.10 ± 2.39%.

What about the fraction unbound (Depressed NRM MDD subjects, N=30, mean ± SD, read-out: Percent Free Fraction) of the same molecule?
Its fraction unbound is about 0.062.

What about the fraction unbound (Healthy Volunteers (HV), N=51, mean ± SD, read-out: Percent Free Fraction) of the same molecule?
Its fraction unbound is about 0.08.

And the fraction unbound (High Risk (HR) subjects, N=9, mean ± SD, read-out: Percent Free Fraction)?
Its fraction unbound is 0.065.

And the fraction unbound (Medication Exposed MDD patients, n=66, off antidepressants at least two weeks, read-out: Plasma free fraction (fp))?
Its fraction unbound is 0.07 ± 0.02.

And the fraction unbound (Medication Naïve MDD patients, n=32, read-out: Plasma free fraction (fp))?
The fraction unbound was 0.06 ± 0.02.
